Columns and labels:
NDM-1 = target: T1, NDM-1 (Klebsiella pneumoniae, UniProt C7C422); test: NDM-1 inhibition, fluorogenic cephalosporin (FC5) hydrolysis; assay type: biochemical; conditions: enethiols 6 assayed as sodium salts; 10 min incubation; read-out: IC50 NDM-1
T1 construct: made in house
Method: (§1) Inhibition analyses against bacterial MBLs and SBLs were performed as described previously.[22], [24], [26] Residual enzyme activities were determined for a range of inhibitor concentrations. Non-linear regression fitting of IC50 curves was carried out using a three-parameter dose–response curve in GraphPad Prism. Errors in IC50 values are expressed as: σ(logIC50)/logIC50×IC50
(§2) We first screened the inhibitors against a representative set of presently clinically important and other MBLs[22], comprising both Class B1 enzymes (NDM-1, New Delhi MBL-1; VIM-2, Verona integron–encoded MBL-2; BcII, Bacillus cereus II MBL; SPM-1, São Paulo MBL-1; IMP-1, imipenemase MBL-1) and the Class B2 MBL CphA (carbapenem hydrolysing MBL from Aeromonas hydrophila).[22] The latter MBL (CphA) only utilises one active site Zn(II) ion in catalysis, whilst the others normally use two Zn(II) ions.
Figure S4: IC50 curves for NDM-1 inhibition time courses. Residual activities were calculated from the
(§3) initial rate of FC5 hydrolysis after incubation of the enzyme with the inhibitor for 10 minutes. […]

SPM-1 = SPM-1 (Pseudomonas aeruginosa, UniProt Q8G9Q0); test: SPM-1 inhibition, fluorogenic cephalosporin (FC5) hydrolysis; assay type: biochemical; conditions: enethiols 6 assayed as sodium salts; 10 min incubation; read-out: IC50 SPM-1 (converted)
Method: as §1, §2
Figure S5: IC50 curves for SPM-1 inhibition time courses. Residual activities were calculated from the
as §3

VIM-2 = target: T2, VIM-2 (Escherichia coli, UniProt Q5U7L7); test: biochemical; conditions: enethiols 6 assayed as sodium salts; 10 min incubation; read-out: IC50 VIM-2 (converted)
T2 construct: made in house
Method: as §1
as §2, with “ions. We also screened the inhibitors against a representative panel of SBLs from different classes (TEM-1, Temoneira β-lactamase-1, class A; CTX-M-15, cefotaxime hydrolysing β-lactamase from Munich 15, class A, extended spectrum β-lactamase (ESBL); AmpC E. coli, class C, and OXA-10, oxacillinase-10, class D).” for “ions.”
Figure S6: IC50 curves for VIM-2 inhibition time courses. Residual activities were calculated from the
as §3

[1] = 1H NMR time course stability (hydrolysis) test; assay type: physicochemical; conditions: 200 µM, pH 7.5, presence or absence of NDM-1, timescale of the inhibition studies
Method: NMR experiments were carried out using a Bruker Avance III 700 MHz machine equipped with a TCI inverse cryoprobe or a Bruker Avance III HD 600 MHz spectrometer equipped with a Prodigy cryoprobe at 298 K. Data were analysed using Bruker Topspin 3.5. Processing of spectra was done with a Lorentzian line broadening of 0.3 Hz. Chemical shifts (δ) are given as parts per million (ppm) relative to residual HDO (δH 4.70 ppm for ^1H NMR).
For rhodanine stability studies solutions were buffered in either freshly prepared NH4HCO3 (50 mM, pH 7.50) or Tris-d11 (50 mM, pH 7.50) both with NaCl (100 mM) in D2O. ML302 stock solution (50 mM in DMSO‑d6) was added to a sample to give a final concentration of 200 µM. When specified, NDM-1 was added to give a final concentration of 1 µM. The reaction was followed at 1 h intervals over 18 h (Figs. S7 and S8).
Figure S7. […] A, 10 (200 µM) in NH4HCO3 (50 mM, pH
7.5 in D2O) in the absence of NDM-1, 1H NMR time course over 18 hours; B, 10 (200 µM) in NH4HCO3 (50 mM, pH 7.5 in D2O) in the presence of NDM-1 (1 µM), 1H NMR time course over 18 hours; C, 10 (200 µM) in Tris-d11 (50 mM, pH 7.5 in D2O) in the absence of NDM-1, 1H NMR time course over 18 hours; D, 10 (200 µM) in Tris-d11 (50 mM, pH 7.5 in D2O) and in the presence of NDM-1 (1 µM), 1H NMR time course over 18 hours. […]

BcII = target: T3, BcII (Bacillus cereus, UniProt P04190); test: biochemical; conditions: enethiols 6 assayed as sodium salts; 10 min incubation; read-out: IC50 BcII (converted)
T3 construct: made in house
Method: as §1, §2
Figure S2: IC50 curves for BcII inhibition time courses. Residual activities were calculated from the initial
rate of FC5 hydrolysis after incubation of the enzyme with the inhibitor for 10 minutes. […]

T3 sequence (P04190 31-257): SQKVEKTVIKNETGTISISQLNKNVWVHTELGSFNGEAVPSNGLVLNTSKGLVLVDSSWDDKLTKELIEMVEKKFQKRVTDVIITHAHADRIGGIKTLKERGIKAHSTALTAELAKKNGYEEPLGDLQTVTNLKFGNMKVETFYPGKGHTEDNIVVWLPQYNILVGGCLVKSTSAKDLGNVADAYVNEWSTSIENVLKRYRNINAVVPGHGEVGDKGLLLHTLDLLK
Sequence of SPM-1 (Q8G9Q0 entry or part of it): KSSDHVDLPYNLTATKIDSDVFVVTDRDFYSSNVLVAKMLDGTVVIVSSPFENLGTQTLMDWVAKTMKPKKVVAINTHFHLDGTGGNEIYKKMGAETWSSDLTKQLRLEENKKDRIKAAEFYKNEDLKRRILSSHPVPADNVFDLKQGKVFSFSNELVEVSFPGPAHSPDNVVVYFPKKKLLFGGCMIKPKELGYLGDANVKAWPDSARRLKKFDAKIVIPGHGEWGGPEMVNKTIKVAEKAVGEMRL
T1 sequence (C7C422 29-270, looked up, species assumed): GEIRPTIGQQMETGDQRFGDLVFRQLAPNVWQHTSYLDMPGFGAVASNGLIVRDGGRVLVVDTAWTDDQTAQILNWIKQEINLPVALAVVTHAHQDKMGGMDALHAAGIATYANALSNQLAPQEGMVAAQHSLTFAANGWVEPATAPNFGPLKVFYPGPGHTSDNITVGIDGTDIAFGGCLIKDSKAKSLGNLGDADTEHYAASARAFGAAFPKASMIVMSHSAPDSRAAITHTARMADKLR

## CN1CCN(NC(=O)CN2C(=O)S/C(=C\c3c(Cl)ccc(Cl)c3Cl)C2=O)CC1 [Compound 10]
NDM-1
  IC50: > 50000 nM
SPM-1
  IC50: 500 ± 40 nM
VIM-2
  IC50: 200 ± 20 nM
[1]
  hydrolysis by 1H NMR (700 MHz): did not observe hydrolysis
BcII
  IC50: 600 ± 50 nM
